Key:
Kynureninase = target: T1, Kynureninase (Rattus norvegicus, UniProt P70712); experiment: Tested for inhibitory activity against kynureninase from rat liver
T1 sequence (P70712 whole entry): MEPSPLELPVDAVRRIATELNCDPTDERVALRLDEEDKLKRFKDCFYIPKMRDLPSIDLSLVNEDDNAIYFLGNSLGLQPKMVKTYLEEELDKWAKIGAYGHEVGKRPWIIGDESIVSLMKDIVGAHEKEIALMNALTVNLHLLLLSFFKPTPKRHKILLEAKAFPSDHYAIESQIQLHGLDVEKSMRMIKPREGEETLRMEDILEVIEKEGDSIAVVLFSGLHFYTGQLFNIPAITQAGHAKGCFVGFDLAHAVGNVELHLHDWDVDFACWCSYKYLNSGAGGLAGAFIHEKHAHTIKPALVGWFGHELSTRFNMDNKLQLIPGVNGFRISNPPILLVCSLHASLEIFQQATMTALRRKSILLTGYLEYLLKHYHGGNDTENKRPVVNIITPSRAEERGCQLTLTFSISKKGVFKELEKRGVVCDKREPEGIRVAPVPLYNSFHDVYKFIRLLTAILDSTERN

[1] = target: Kynurenine 3-monooxygenase (Rattus norvegicus, UniProt O88867); experiment: Tested for inhibitory activity against kynurenine 3-hydroxylase
[2] = target: Kynurenine 3-monooxygenase (Rattus norvegicus) (UniProt O88867); conditions: 100 uM
Chain of Kynurenine 3-monooxygenase (Rattus norvegicus) (O88867 whole entry, looked up): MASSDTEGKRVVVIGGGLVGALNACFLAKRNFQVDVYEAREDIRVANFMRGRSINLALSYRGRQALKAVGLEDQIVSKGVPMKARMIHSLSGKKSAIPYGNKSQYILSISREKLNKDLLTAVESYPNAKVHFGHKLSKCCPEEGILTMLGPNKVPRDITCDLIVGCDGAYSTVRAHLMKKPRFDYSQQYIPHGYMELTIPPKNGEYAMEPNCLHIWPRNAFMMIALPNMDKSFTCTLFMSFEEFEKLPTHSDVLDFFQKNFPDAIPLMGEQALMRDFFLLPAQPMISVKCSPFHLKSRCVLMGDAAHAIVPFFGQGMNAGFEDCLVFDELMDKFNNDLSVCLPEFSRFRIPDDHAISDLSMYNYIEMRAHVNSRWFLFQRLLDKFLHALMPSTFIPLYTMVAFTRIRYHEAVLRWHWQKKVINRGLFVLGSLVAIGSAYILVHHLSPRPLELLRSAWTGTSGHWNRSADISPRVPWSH
Description: Tested for inhibitory activity against kynurenine 3-hydroxylase at 100 uM concentration

Chain of Kynurenine 3-monooxygenase (O88867 whole entry): as the sequence (O88867 whole entry, looked up) above

IC50 (Kynureninase) | IC50 [1] | inhibition [2] | SMILES
60 µM | 0.5 µM |  | N[C@@H](CC(=O)c1cccc([N+](=O)[O-])c1)C(=O)O
100 µM |  | 60% | N[C@H](CC(=O)c1cccc([N+](=O)[O-])c1)C(=O)O

Source: ChEMBL document CHEMBL1149923, “Synthesis and activity of enantiopure (S) (m-nitrobenzoyl) alanine, potent kynurenine-3-hydroxylase inhibitor” (Bioorg Med Chem Lett, 1995)
